The target of test [1] is Recombinant JAK-1 (GST-JAK-1 (852-1142)) (Homo sapiens (Human), UniProt P23458). Briefly: JAK Enzymatic Assay (peptide mobility shift), JAK-1. Conditions: ATP 40 micromolar, IRS-1 peptide, 240 minutes. The format is biochemical.
Procedure: (§4) Materials: Recombinant JAK-2 (Catalog Number PV4210) and JAK-3 (Catalog Number PV3855) were purchased from (Invitrogen Corporation, Madison, Wis.). Recombinant JAK-1 (GST-JAK-1 (852-1142)) and Tyk-2 (GST-Tyk2 (870-1187, C1187S)) used in this study were expressed and purified at Pfizer Laboratories. Adenosine 5′-triphosphate (ATP) was obtained from Sigma Chemical Company, St. Louis, Mo. […] Coating Reagent 3 was purchased from (Caliper Life Sciences, Hopkinton, Mass.).
(§5) Reactions were carried out in a 384-well plate (Matrical MP-101) in a 10 microliter total volume. Reaction mixtures contained 20 mM HEPES, pH 7.4, 10 mM magnesium chloride, 0.01% bovine serum albumin (BSA), 0.0005% Tween-20, ATP (4 micromolar for JAK-2 and JAK-3, 40 micromolar for JAK-1 and 7 micromolar for Tyk-2)), 2% DMSO and 1 micromolar peptide substrate (JAKtide for JAK-2 and JAK-3 or IRS-1 peptide for JAK-1 and Tyk-2). Compounds were diluted serially in 100% dimethyl sulfoxide and tested in an 11 point dose response in duplicate or quadruplicate (200 nl of compound/DMSO was added per 10 microliter reaction). […] Data was analyzed using Hits Well Analyzer Software from (Caliper Life Sciences) to obtain the amount of product formed.
(§6) Data was then imported into an internal application where each data point was expressed as % inhibition based on uninhibited and no enzyme controls. […]
Test [2] addresses Recombinant JAK-3 (Homo sapiens (Human), UniProt P52333). Description: JAK Enzymatic Assay (peptide mobility shift), JAK-3. It counts as biochemical. Conditions: ATP 4 micromolar, JAKtide, 90 minutes.
Procedure: as §4, §5, §6
Test [3] relates to T-cell proliferation in canine whole blood (ConA + canine IL-2). Briefly: Canine In Vitro T-Cell Proliferation Assay. It counts as cell-based. Conditions: Canis lupus familiaris, tritiated thymidine. On the procedure: Methods: Canine whole blood was collected in sodium heparin tubes from 29 beagle dogs and 23 mixed breed dogs. Whole blood (20 μL) was plated in 96-well plates (Costar 3598) with 180 μL of medium (RPMI 1640, Gibco #21870-076, with 1% heat inactivated fetal bovine serum, Gibco #10082-39, 292 μg/ml L-glutamine, Gibco #250030-081, 100 u/ml penicillin and 100 μg streptomycin per ml, Gibco #15140-122) containing vehicle control or test compound (0.001 to 10 μM), concanavalin A (ConA; 1 μg/ml, Sigma C5275), and canine interleukin-2 (IL-2; 50 ng/ml, R&D Systems 1815-CL/CF). Wells containing whole blood, medium with vehicle control and no ConA or IL-2 were used as background controls. Plates were incubated at 37° C. for 48 hours. Tritiated thymidine, 0.4 μCi/well (Perkin Elmer, Net027A-005MC), was added for 20 additional hours. Plates were frozen and then thawed, washed and filtered using a Brandel MLR-96 cell harvester and prewet filter mats (Wallac 1205-401, Perkin Elmer). Filters were dried at 60° C. for one hour (Precision 16EG convection oven) and placed into filter sample bags (Wallac 1205-411, Perkin Elmer) with 10 mL of scintillant (Wallac 1205-440, Perkin Elmer). Sealed filters were counted on a LKB Wallac 1205 Betaplate liquid scintillation counter. Data were collected via Gterm Betaplate program v1.1 (Wallac copyright 1989-1990) and transformed into percent inhibition, calculated using the following formula: […]

The test system of test [4] is MYA-1 feline T-lymphoblast cell line. Briefly: Cell Proliferation Inhibitory Assay, MYA-1. It counts as cell-based. Conditions: Felis catus; Feline MYA-1 lymphoid line (IL-2 dependent); MTS. On the procedure:
(§1) Feline Cell Lines The MYA-1 and FETJ are feline T-lymphoblast cell lines obtained from ATCC (Manassas, Va.). These cells were cultured in RPMI 1640 complete media supplemented with 10% FBS at 37° C. in a humidified incubator with 5% CO2.
(§2) Cells cultured in medium described above were plated in 96-well Costar plates (Corning) at a density of 1×10^3 cells/well (feline cell lines) or 2×10^5 cells/well (lymph node cells) and exposed to various concentrations of test compounds for up to 5 days at 37° C. in a humidified incubator with 5% CO2. Effects on proliferation were determined using the CellTiter 96® AQueous Non-Radioactive Cell Proliferation Assay (Promega) according to manufacturer's instructions. In general, proliferation was indirectly measured using a soluble tetrazolium salt (MTS) and an electron coupling agent. MTS bioreduction into a formazan product soluble in tissue culture medium was monitored by absorbance at 490 nm on a Spectramax plate reader using Softmax Pro 4.6 software (Molecular Devices).

Test [5] relates to FETJ feline T-lymphoblast cell line. Description: Cell Proliferation Inhibitory Assay, FETJ. It counts as cell-based. As to conditions: Felis catus; Feline FETj lymphoid line (IL-2 independent); MTS. On the procedure: as §1, §2
Test [6] has as its system MSU LN 8 De novo T-cell lymphoma lymph node cells. Briefly: Cell Proliferation Inhibitory Assay, ex vivo canine lymphoma nodal tissue MSU LN 8. It counts as cell-based. Conditions: Canis lupus familiaris, Canine MSU LN 8, De novo T-cell lymphoma. How it is done:
(§3) Malignant lymph nodes were excised by veterinary staff at Michigan State University (MSU) Veterinary College, placed into transport media (Advanced RPMI 1640 complete medium supplemented with 10% Fetal Bovine Serum (FBS), 100 U/mL penicillin, 100 ug/mL streptomycin and 0.25 ug/mL Amphotercin B (Invitrogen/Gibco®). Nodes were processed within 24 hours of removal by mincing into tiny pieces and passing through a tissue sieve. Cell suspensions were spun at 200×g, supernatant was removed, and the cell pellet was resuspended in NH4Cl for 10 minutes at room temperature. The cell suspension was pelleted by centrifugation; the NH4Cl was removed and washed once with Hanks Balanced Salt Solution (HBSS), followed by re-suspension in Proliferation Medium (Advanced RPMI complete, 1% FBS, […] 2-Mercaptoethanol, 100 U/mL penicillin, 100 ug/mL streptomycin and 0.25 ug/mL Amphotercin B). The cell suspension was then passed through a 100 μm nylon cell strainer (BD-Falcon) and counted using a hemacytometer. Cells were cultured in either Proliferation Medium alone, Proliferation Medium supplemented with 0.005% Pansorbin® (Heat inactivated, formalin-fixed Staphylococcus Aureus cells (SAC), Calbiochem), and 10 ng/mL canine IL-2 (R&D Systems), or Proliferation Medium supplemented with 125 ng/mL concavalin A (Sigma) and 125 ng/mL lipopolysaccarride (LPS; Calbiochem). […]

Test [7] relates to MSU LN 9 De novo B-cell lymphoma lymph node cells. Description: Cell Proliferation Inhibitory Assay, ex vivo canine lymphoma nodal tissue MSU LN 9. It counts as cell-based. Conditions: Canis lupus familiaris, Canine MSU LN 9, De novo B-cell lymphoma. How it is done: as §3
Test [8] deals with MSU LN 10 Chemotherapy resistant B-cell lymphoma lymph node cells. Briefly: Cell Proliferation Inhibitory Assay, ex vivo canine lymphoma nodal tissue MSU LN 10. The format is cell-based. As to conditions: Canis lupus familiaris; Canine MSU LN 10, Chemotherapy resistant B-cell lymphoma; LPS + ConA. How it is done:
as §3

In test [9] the test system is MSU LN 11 De novo B-cell lymphoma lymph node cells. Briefly: Cell Proliferation Inhibitory Assay, ex vivo canine lymphoma nodal tissue MSU LN 11. It counts as cell-based. As to conditions: Canis lupus familiaris; Canine MSU LN 11, De novo B-cell lymphoma; LPS + ConA. How it is done: as §3
Test [10] deals with Recombinant JAK-2 (Homo sapiens (Human), UniProt O60674). Conditions: read-out: JAK-2 IC50; ATP 4 micromolar, JAKtide, 150 minutes.
Chain of Recombinant JAK-2 (O60674 808-1132): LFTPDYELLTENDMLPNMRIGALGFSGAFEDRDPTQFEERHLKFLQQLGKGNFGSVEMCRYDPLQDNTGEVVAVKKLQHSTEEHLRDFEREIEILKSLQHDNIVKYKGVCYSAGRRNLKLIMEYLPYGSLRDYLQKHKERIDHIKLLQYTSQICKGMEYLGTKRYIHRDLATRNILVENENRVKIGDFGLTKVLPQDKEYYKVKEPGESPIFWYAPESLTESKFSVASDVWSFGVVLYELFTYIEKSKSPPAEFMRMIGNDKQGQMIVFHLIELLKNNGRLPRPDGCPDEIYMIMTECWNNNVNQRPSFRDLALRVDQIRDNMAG
Procedure: as §4, §5, §6
For test [11], the system named is flea-associated pruritus and dermatitis in flea allergic dogs. Description: Reducing Flea-Associated Pruritus and Dermatitis Assay. Conditions: for pruritus as compared to placebo (seconds of pruritus per 4 hour recording): 10% level of significance. It counts as in vivo. On the procedure: Twenty eight male and female dogs of mixed breeds ranging in weight from 5-35 kg and greater than one year of age were infested with approximately 100 unfed adult cat fleas (Ctenocephalides felis) 14 days prior to the start of dosing and reinfested with 30 fleas per dog every 4 days throughout the study. Seven days before dosing, twenty four dogs were randomized into three different treatment groups, placebo, 0.5 mg/kg or 0.25 mg/kg of the compound of Example 1b, based on visual analog scale (VAS) scores for skin lesions. Treatments were given orally twice a day for 28 days, and pruritic behavior as well as erythema and skin lesions were was assessed during the study. Pruritic behavior was recorded by placing dogs into pens with video recording capability, and recording their activity over 4 hours. Pruritic activity was quantitated by determining how many seconds the dogs spent scratching. Skin lesions were recorded by image capture of abdominal, inguinal region and the severity ranked according to a visual analog scale (VAS).
Video captured elapsed time of pruritic behavior was analyzed using a mixed linear model for repeated measures. The model included fixed effects of treatment and day of study and the interaction of treatment and day of study. Random effects included block, the interaction of block and treatment and error. Baseline data for pruritic behavior (day −1) were used as covariate in the analysis of pruritic behavior. Least squares means were used as estimates of treatment means. Standard errors of least squares means were estimated and 90% confidence intervals were constructed. Geometric means were computed from the least squares means for log-transformed data. A priori contrasts were used to assess treatment. Treatment differences were assessed at the 10% level of significance (P≦0.10).

Usually IC50 stands for the point on the concentration scale where inhibition reaches its midpoint.

Chain of Recombinant JAK-3 (P52333 781-1124): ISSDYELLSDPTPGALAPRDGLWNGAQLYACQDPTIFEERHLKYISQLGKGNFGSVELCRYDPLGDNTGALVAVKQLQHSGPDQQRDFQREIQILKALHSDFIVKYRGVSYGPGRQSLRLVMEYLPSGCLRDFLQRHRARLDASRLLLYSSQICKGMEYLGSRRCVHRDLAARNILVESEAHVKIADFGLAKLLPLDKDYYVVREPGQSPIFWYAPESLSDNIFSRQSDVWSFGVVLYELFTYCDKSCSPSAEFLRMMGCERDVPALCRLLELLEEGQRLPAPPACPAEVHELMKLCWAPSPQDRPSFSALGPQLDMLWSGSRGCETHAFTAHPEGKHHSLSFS
Chain of Recombinant JAK-1 (GST-JAK-1 (852-1142)) (P23458 852-1142): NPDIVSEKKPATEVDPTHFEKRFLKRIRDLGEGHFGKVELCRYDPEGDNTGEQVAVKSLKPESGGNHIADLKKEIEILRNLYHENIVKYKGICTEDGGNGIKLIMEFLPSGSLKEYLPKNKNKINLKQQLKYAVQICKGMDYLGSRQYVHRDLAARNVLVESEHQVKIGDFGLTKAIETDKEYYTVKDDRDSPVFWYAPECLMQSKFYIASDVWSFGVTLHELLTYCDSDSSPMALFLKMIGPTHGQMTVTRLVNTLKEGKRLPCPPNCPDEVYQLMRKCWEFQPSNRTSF

With `CNS(=O)(=O)C[C@H]1CC[C@H](N(C)c2ncnc3[nH]ccc23)CC1` [Example 1a, N-methyl-1-{trans-4-[methyl(7H-pyrrolo[2,3-d]pyrimidin-4-yl)amino]cyclohexyl}methanesulfonamide], the half-maximal inhibitory concentration (IC50) in test [1] is 9.53 nM; in test [2] it was 95.1 nM; in test [3] (whole blood from beagles) it was 66.3 nM; in test [3] (whole blood from mixed breed dogs) it was 138 nM; in test [4], 122 nM; in test [5], over 1000 nM. Moreover, the IC50 in test [6] (LPS + ConA) came to 357 nM; in test [6] (SAC + IL-2), 38 nM; in test [7] (LPS + ConA) it was 147 nM; in [7] (SAC + IL-2), 100 nM; in test [8], 687 nM; in [9] it was 64 nM. Besides, in test [10], the IC50 stood at 17.5 nM.

With `CNS(=O)(=O)C[C@H]1CC[C@H](N(C)c2ncnc3[nH]ccc23)CC1.O=C(O)/C=C\C(=O)O` [Example 1b, N-methyl-1-{trans-4-[methyl(7H-pyrrolo[2,3-d]pyrimidin-4-yl)amino]cyclohexyl}methanesulfonamide maleic acid salt], the “pruritus as compared to placebo (seconds of pruritus per 4 hour recording)” value in [11] (0.25 mg/kg orally twice a day, days 1, 4 and 12) was “Significant reductions”; in test [11] (0.5 mg/kg orally twice a day, days 1 and 20), “Significant reductions”. Also, the “Lesions and erythema (VAS scores)” value in [11] (0.5 mg/kg orally twice a day for 28 days, flea allergic dogs, Day 27 VAS) was “significantly reduced”.

Take `CCNS(=O)(=O)C[C@H]1CC[C@H](N(C)c2ncnc3[nH]ccc23)CC1` [Example 3, N-ethyl-1-{trans-4-[methyl(7H-pyrrolo[2,3-d]pyrimidin-4-yl)amino]cyclohexyl}methanesulfonamide]: the IC50 in test [3] (whole blood from beagles) was 83 nM.

Consider `CN(c1ncnc2[nH]ccc12)[C@H]1CC[C@H](CS(=O)(=O)NC2CCC2)CC1` [Example 2, N-cyclobutyl-1-{trans-4-[methyl(7H-pyrrolo[2,3-d]pyrimidin-4-yl)amino]cyclohexyl}methanesulfonamide], for which the half-maximal inhibitory concentration (IC50) amounted to 45 nM in test [1], 742 nM in test [2], 410 nM in test [3] (whole blood from beagles) and 101 nM in test [10].

For the origin of these results see patent publication US9161939B2, “Pyrrolo[2,3-d]pyrimidine compounds” (Zoetis LLC, priority 2008, dated 2015).
